Measured values as given in US9346811B2, “6,7-dihydro-pyrazolo[1,5-a]pyrazin-4-ylamine derivatives useful as inhibitors of beta-secretase (BACE)” (JANSSEN PHARMACEUTICA NV, priority 2011, dated 2016).

Assays:
[1] = target: recombinant BACE1 protein (Homo sapiens, UniProt P56817); assay: Biochemical FRET based assay; details: recombinant BACE1 1 μg/ml, 120 min, pH 5.0
[2] = tested on: Aβ42 produced and secreted into the medium of human neuroblastoma SKNBE2 cells; assay: Cellular αlisa assay in SKNBE2 cells, Aβ42; format: cell-based; details: SKNBE2 cells expressing hAPP695, 18 hours incubation
[3] = tested on: Aβtotal produced and secreted into the medium of human neuroblastoma SKNBE2 cells; assay: Cellular αlisa assay in SKNBE2 cells, Aβtotal; format: cell-based; details: SKNBE2 cells expressing hAPP695, 18 hours incubation
[4] = tested on: brain levels of soluble Aβ42; assay: In vivo efficacy: brain Aβ42 lowering (ELISA); set-up: species or system mouse; details: 4 h. after administration
Description: (§1) To determine whether acute administration of an Aβ42 peptide lowering agent would reduce Aβ peptide levels in vivo, non-transgenic rodents, e.g. mice or rats were used. Animals treated with the Aβ peptide lowering agent were examined and compared to those untreated or treated with vehicle and brain levels of soluble Aβ42 and total Aβ were quantitated by standard techniques, for example, using ELISA. Treatment periods varied from hours (h) to days and were adjusted based on the results of the Aβ42 lowering once a time course of onset of effect could be established.
(§2) A typical protocol for measuring Aβ42 lowering in vivo is shown but it is only one of many variations that could be used to optimize the levels of detectable Aβ. For example, Aβ peptide lowering compounds were formulated in 20% hydroxypropyl β cyclodextrin. The Aβ peptide lowering agents were administered as a single oral dose (p.o.) or a single subcutaneous dose (s.c.) to overnight fasted animals. After a certain time, usually 2 or 4 h (as indicated in Table 7), the animals were sacrificed and Aβ42 levels were analysed.
(§3) Blood was collected by decapitation and exsanguinations in EDTA-treated collection tubes. Blood was centrifuged at 1900 g for 10 minutes (min) at 4° C. and the plasma recovered and flash frozen for later analysis. The brain was removed from the cranium and hindbrain. The cerebellum was removed and the left and right hemisphere were separated. The left hemisphere was stored at −18° C. for quantitative analysis of test compound levels. The right hemisphere was rinsed with phosphate-buffered saline (PBS) buffer and immediately frozen on dry ice and stored at −80° C. until homogenization for biochemical assays.
(§4) Mouse brains from non-transgenic animals were resuspended in 8 volumes of 0.4% DEA (diethylamine)/50 mM NaCl containing protease inhibitors (Roche-11873580001 or 04693159001) per gram of tissue, e.g. for 0.158 g brain, add 1.264 ml of 0.4% DEA. All samples were homogenized in the FastPrep-24 system (MP Biomedicals) using lysing matrix D (MPBio #6913-100) at 6 m/s for 20 seconds. Homogenates were centrifuged at 221.300×g for 50 min. The resulting high speed supernatants were then transferred to fresh eppendorf tubes. Nine parts of supernatant were neutralized with 1 part 0.5 M Tris-HCl pH 6.8 and used to quantify Aβtotal and Aβ42.
(§5) To quantify the amount of Aβtotal and Aβ42 in the soluble fraction of the brain homogenates, Enzyme-Linked-Immunosorbent-Assays were used. Briefly, the standards (a dilution of synthetic Aβ1-40 and […], Bachem) were prepared in 1.5 ml Eppendorf tube in Ultraculture, with final concentrations ranging from 10000 to 0.3 pg/ml. The samples and standards were co-incubated with HRPO-labelled N-terminal antibody for Aβ42 detection and with the biotinylated mid-domain antibody 4G8 for Aβtotal detection. 50 μl of conjugate/sample or conjugate/standards mixtures were then added to the antibody-coated plate (the capture antibodies selectively recognize the C-terminal end of Aβ42, antibody JRF/cAβ42/26, for Aβ42 detection and the N-terminus of Aβ, antibody JRF/rAβ/2, for Aβtotal detection). The plate was allowed to incubate overnight at 4° C. in order to allow formation of the antibody-amyloid complex. Following this incubation and subsequent wash steps the ELISA for Aβ42 quantification was finished by addition of Quanta Blu fluorogenic peroxidase substrate according to the manufacturer's instructions (Pierce Corp., Rockford, Il.). A reading was performed after 10 to 15 min (excitation 320 nm/emission 420 nm).
In this model at least 20% Aβ42 lowering compared to untreated animals would be advantageous.

[5] = tested on: brain levels of total Aβ; assay: In vivo efficacy: brain Aβtotal lowering (ELISA); set-up: species or system mouse; details: 4 h. after administration
Description: as §1, §2, §3, §4, §5
For Aβtotal detection, a Streptavidine-Peroxidase-Conjugate was added, followed 60 min later by an additional wash step and addition of Quanta Blu fluorogenic peroxidase substrate according to the manufacturer's instructions (Pierce Corp., Rockford, Il.). A reading was performed after 10 to 15 min (excitation 320 nm/emission 420 nm).

Chain of recombinant BACE1 protein (P56817 46-501): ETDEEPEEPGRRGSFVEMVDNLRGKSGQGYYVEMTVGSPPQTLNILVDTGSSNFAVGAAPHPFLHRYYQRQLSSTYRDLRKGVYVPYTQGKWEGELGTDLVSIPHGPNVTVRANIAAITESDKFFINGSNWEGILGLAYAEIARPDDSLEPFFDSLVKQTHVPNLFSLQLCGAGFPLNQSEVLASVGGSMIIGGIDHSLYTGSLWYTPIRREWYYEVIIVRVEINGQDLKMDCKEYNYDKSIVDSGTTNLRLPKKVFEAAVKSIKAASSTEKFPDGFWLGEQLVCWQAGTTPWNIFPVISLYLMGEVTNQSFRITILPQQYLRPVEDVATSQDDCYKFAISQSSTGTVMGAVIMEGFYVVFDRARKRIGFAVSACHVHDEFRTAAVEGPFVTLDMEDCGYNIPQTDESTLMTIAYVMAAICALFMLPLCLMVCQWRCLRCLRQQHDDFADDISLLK

| SMILES | IC50 ([1]; read-out: Biochemical FRET based assay pIC50 (converted)) [nM] | IC50 ([2]; Homo sapiens, SKNBE2, 18 h, read-out: Cellular αlisa assay in SKNBE2 cells Aβ42 pIC50 (converted)) [nM] | IC50 ([3]; Homo sapiens, SKNBE2, 18 h, read-out: Cellular αlisa assay in SKNBE2 cells Aβtotal pIC50 (converted)) [nM] | Aβ42 (% Ctrl)_Mean ([4]; 10 mg/kg p.o.) [% Ctrl] | Aβtotal (% Ctrl)_Mean ([5]; 10 mg/kg p.o.) [% Ctrl] | Biochemical FRET based assay pIC50 [1] | Cellular αlisa assay in SKNBE2 cells Aβ42 pIC50 [2] | Cellular αlisa assay in SKNBE2 cells Aβtotal pIC50 [3] | Aβ42 (% Ctrl)_Mean ([4]; 100 mg/kg s.c.) [% Ctrl] | Aβtotal (% Ctrl)_Mean ([5]; 100 mg/kg s.c.) [% Ctrl] |
| --- | --- | --- | --- | --- | --- | --- | --- | --- | --- | --- |
| COc1cnc(C(=O)Nc2ccc(F)c([C@]3(C)Cn4nc(C)c(F)c4C(N)=N3)c2)cn1 [Compound 29, (R)-5-methoxy-pyrazine-2-carboxylic acid [3-(4-amino-3-fluoro-2,6-dimethyl-6,7-dihydro-pyrazolo[1,5-a]pyrazin-6-yl)-4-fluoro-phenyl]-amide] | 81.3 | 16.2 | 17 | 59 | 58 |  |  |  |  |  |
| CC1(c2cc(NC(=O)c3ccc(F)cn3)ccc2F)Cn2ncc(F)c2C(N)=N1 (stereo not shown) [Compound 33] |  |  |  |  |  | 7.19 | 8.09 | 8.14 | 49 | 20 |
